Measured values from US20110319392A1, “Thiazole Sulfonamide And Oxazole Sulfonamide Kinase Inhibitors” (priority 2009, published 2011).

Tests used:
[1] = target: T1, EGFR (Homo sapiens, UniProt P00533); experiment: EGFR substrate phosphorylation assay (HTRF); format: biochemical
T1 construct: made in house; host or cells: baculovirus expression system
Procedure, shortened: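 Baculovirus-expressed EGFR (0.8 nM) or ErbB2 (10 nM) in enzyme mix, preincubated 1 h at 20 °C with compound (0.00027–47.6 μM final), then 90 min at 20 °C with substrate mix of 20 μM ATP, 0.8 uM biotinylated Peptide C, MnCl2, MOPS pH 7.5. Phosphotyrosine by HTRF; pIC50 reported.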

[2] = system: BT474 tumor cells; experiment: Cell growth inhibition assay (CellTiter-Glo), BT474; format: cell-based, Human; conditions: 3 days incubation
[3] = system: Colo205 tumor cells; experiment: Cell growth inhibition assay (CellTiter-Glo), Colo205; format: cell-based, Human; conditions: 3 days incubation
Procedure, shortened: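 Readout was CellTiter-Glo luminescence (total ATP, surrogate for cell number) after 3-day exposure at 37° C, 5% CO2 to 1:3 serial compound dilutions in 0.2% final DMSO. Seeding was 500 cells/well; IC50 derived by 4-parameter fit relative to vehicle-treated wells.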

[4] = system: SK-MEL-3 tumor cells; experiment: Cell growth inhibition assay (CellTiter-Glo), SK-MEL-3; format: cell-based, Human; conditions: for IC50: Homo sapiens, SK-MEL3
Procedure, shortened: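 Cells plated at 500 cells/well in their growth media, dosed next day with nine-step 1:3 compound dilutions (final DMSO 0.2%), then incubated 3 days at 37° C, 5% CO2. Total ATP read by CellTiter-Glo luminescence as a surrogate for cell number; IC50 interpolated from 4-parameter fit versus DMSO controls.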

T1 sequence (P00533 25-1210): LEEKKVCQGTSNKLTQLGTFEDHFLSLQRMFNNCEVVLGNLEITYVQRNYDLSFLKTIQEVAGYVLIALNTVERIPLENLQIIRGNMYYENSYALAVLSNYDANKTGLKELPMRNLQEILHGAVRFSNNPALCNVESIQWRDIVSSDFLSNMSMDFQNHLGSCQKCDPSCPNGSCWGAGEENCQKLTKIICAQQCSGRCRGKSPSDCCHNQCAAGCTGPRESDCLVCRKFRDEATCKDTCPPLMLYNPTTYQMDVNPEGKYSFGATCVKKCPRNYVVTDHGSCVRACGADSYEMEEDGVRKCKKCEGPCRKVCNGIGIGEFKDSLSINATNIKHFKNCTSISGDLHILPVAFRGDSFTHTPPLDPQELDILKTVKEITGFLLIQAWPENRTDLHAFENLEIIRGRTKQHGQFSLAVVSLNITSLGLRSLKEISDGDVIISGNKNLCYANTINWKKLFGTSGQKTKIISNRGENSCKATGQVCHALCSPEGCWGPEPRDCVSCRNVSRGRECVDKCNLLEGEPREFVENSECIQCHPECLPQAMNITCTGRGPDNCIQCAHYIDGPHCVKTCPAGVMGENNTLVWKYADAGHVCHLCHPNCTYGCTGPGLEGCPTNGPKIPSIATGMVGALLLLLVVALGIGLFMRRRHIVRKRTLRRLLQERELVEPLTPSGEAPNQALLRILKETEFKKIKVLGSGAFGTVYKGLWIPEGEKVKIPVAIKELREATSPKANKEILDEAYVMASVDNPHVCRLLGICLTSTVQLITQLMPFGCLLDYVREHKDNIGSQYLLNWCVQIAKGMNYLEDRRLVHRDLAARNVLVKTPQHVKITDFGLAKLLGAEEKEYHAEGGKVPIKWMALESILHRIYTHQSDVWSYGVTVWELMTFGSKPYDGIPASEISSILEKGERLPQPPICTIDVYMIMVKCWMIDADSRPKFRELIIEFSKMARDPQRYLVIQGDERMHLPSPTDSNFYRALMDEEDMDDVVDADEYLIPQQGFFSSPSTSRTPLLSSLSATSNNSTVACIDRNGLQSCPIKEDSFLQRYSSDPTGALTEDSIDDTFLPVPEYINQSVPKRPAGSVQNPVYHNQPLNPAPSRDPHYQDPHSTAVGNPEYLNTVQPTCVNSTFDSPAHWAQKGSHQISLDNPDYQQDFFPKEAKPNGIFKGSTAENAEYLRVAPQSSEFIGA

SMILES | IC50 [1] [nM] | IC50 ([2]; Homo sapiens, BT-474, 72 h) [nM] | IC50 ([3]; Homo sapiens, COLO 205, 72 h) [nM] | IC50 [4] [nM] | IC50 [2] [nM] | IC50 [3] [nM] | Activity in SK-MEL-3 Tumor Cells [4] | EGFR Activity [1]
CC(=O)N1CCN(c2ccc(Nc3nccc(-c4sc(C(C)C)nc4-c4cccc(NS(=O)(=O)c5cn(C)cn5)c4)n3)cn2)CC1 [Example 36] | < 100 | > 1000 | 100 to 1000 | 100 to 1000 | – | – | – | –
CC(C)c1nc(-c2cccc(NS(=O)(=O)C3CCCCC3)c2)c(-c2ccnc(Nc3ccc(N4CCOCC4)c(F)c3)n2)s1 [Example 38] | > 1000 | > 1000 | 100 to 1000 | – | – | – | + (activity of >1 μM in SK-MEL-3 tumor cells) | –
CC(=O)N1CCN(c2ccc(Nc3nccc(-c4sc(C(C)C)nc4-c4cccc(NS(=O)(=O)C5CCCCC5)c4)n3)cn2)CC1 [Example 39] | 100 to 1000 | > 1000 | 100 to 1000 | 100 to 1000 | – | – | – | –
Cc1nc(Cl)sc1S(=O)(=O)Nc1cccc(-c2nc(C(C)C)sc2-c2ccnc(Nc3ccc(N4CCOCC4)nc3)n2)c1 [Example 42] | > 1000 | > 1000 | < 100 | < 100 | – | – | – | –
CC(C)c1nc(-c2cccc(NS(=O)(=O)c3c(F)cccc3F)n2)c(-c2ccnc(Nc3ccc(N4CCOCC4)nc3)n2)s1 [Example 44] | > 1000 | > 1000 | < 100 | 100 to 1000 | – | – | – | –
CC(C)c1nc(-c2cncc(NS(=O)(=O)c3c(F)cccc3F)c2)c(-c2ccnc(Nc3ccc(N4CCOCC4)nc3)n2)s1 [Example 47] | > 1000 | > 1000 | < 100 | < 100 | – | – | – | –
COc1ccc(S(=O)(=O)Nc2cccc(-c3nc(C(C)C)sc3-c3ccnc(Nc4ccc(N5CCOCC5)nc4)n3)c2)cn1 [Example 49] | > 1000 | > 1000 | < 100 | < 100 | – | – | – | –
CC(C)c1nc(-c2cccc(NS(=O)(=O)c3cccs3)c2)c(-c2ccnc(Nc3ccc(N4CCOCC4)nc3)n2)s1 [Example 51] | > 1000 | > 1000 | < 100 | < 100 | – | – | – | –
CC(C)c1nc(-c2cccc(NS(=O)(=O)c3cccnc3)c2)c(-c2ccnc(Nc3ccc(N4CCOCC4)nc3)n2)s1 [Example 52] | 100 to 1000 | > 1000 | < 100 | < 100 | – | – | – | –

Continued, in another order:

IC50 [1] [nM] | IC50 ([2]; Homo sapiens, BT-474, 72 h) [nM] | IC50 ([3]; Homo sapiens, COLO 205, 72 h) [nM] | IC50 [4] [nM] | IC50 [2] [nM] | IC50 [3] [nM] | SMILES | Activity in SK-MEL-3 Tumor Cells [4] | EGFR Activity [1]
> 1000 | > 1000 | < 100 | < 100 | – | – | CC(C)c1nc(-c2cccc(NS(=O)(=O)c3ccco3)c2)c(-c2ccnc(Nc3ccc(N4CCOCC4)nc3)n2)s1 [Example 53] | – | –
> 1000 | > 1000 | < 100 | < 100 | – | – | CC(=O)N1CCN(c2ccc(Nc3nccc(-c4oc(C(C)C)nc4-c4cccc(NS(=O)(=O)c5c(F)cccc5F)c4)n3)cn2)CC1 [Example 56] | – | –
100 to 1000 | > 1000 | < 100 | 100 to 1000 | – | – | CC(C)c1nc(-c2cccc(NS(=O)(=O)c3c(F)cccc3F)c2)c(-c2ccnc(Nc3ccc(N4CCOCC4)c(F)c3)n2)o1 [Example 57] | – | –
100 to 1000 | > 1000 | < 100 | < 100 | – | – | Nc1nc(-c2cccc(NS(=O)(=O)c3c(F)cccc3F)c2)c(-c2ccnc(Nc3ccc(N4CCOCC4)nc3)n2)s1 [Example 62] | – | –
– | – | – | 100 to 1000 | > 1000 | 100 to 1000 | CCNc1nc(-c2cccc(NS(=O)(=O)c3ccccc3)c2)c(-c2ccnc(Nc3ccc(OCCN4CCCC4)c(F)c3)n2)s1 [Example 65] | – | +++ (at least one pIC50 measurement of greater than 7 against EGFR)
> 1000 | > 1000 | 100 to 1000 | 100 to 1000 | – | – | CC(=O)N1CCN(c2ccc(Nc3nccc(-c4sc(C(C)C)nc4-c4cccc(NS(=O)(=O)c5cccc(C(F)(F)F)c5)c4)n3)cn2)CC1 [Example 70] | – | –
100 to 1000 | > 1000 | < 100 | < 100 | – | – | CC(C)c1nc(-c2ccc(F)c(NS(=O)(=O)c3c(F)cccc3F)c2)c(-c2ccnc(Nc3ccc(N4CCN5CCOC[C@H]5C4)nc3)n2)s1 [Example 97] | – | –
